Literature values, collected in patent publication US8202840B2, “Enhanced ocular neuroprotection and neurostimulation” (Minu L.L.C., priority 2005, dated 2012).

What was measured:
[1] = test system: Ganglion cells in the retina (RGC); conditions: systemically administered
[2] = molecular target: immunophilin FK 506-binding protein (FKBP) (Homo sapiens, UniProt P62942); conditions: in vitro
[3] = administered systemically

immunophilin FK 506-binding protein (FKBP), sequence (P62942 whole entry): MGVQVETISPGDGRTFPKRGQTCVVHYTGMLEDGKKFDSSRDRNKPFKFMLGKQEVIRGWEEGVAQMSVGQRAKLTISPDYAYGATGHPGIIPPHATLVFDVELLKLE

## C=CC[C@@H]1/C=C(\C)C[C@H](C)C[C@H](OC)[C@H]2O[C@@](O)(C(=O)C(=O)N3CCCC[C@H]3C(=O)O[C@H](/C(C)=C/[C@@H]3CC[C@@H](O)[C@H](OC)C3)[C@H](C)[C@@H](O)CC1=O)[C@H](C)C[C@@H]2OC [tacrolimus, Tacrolimus]
[1]
  neuroprotection on RGC: conferred neuroprotection on RGC
[2]
  binding to and inhibition of FKBP activity: binds to and inhibits the activity
chloroform
  solubility in chloroform: very soluble
ethanol
  solubility in ethanol: freely soluble
methanol
  solubility in methanol: very soluble
water
  solubility in water: practically insoluble
[3]
  renal and hepatic toxicity: significant renal and hepatic toxicity
